How the values were obtained:
[1] = test system: rats subjected to 60% blood loss; test: Rat hemorrhagic shock, 60% blood loss (Example 3); assay type: in vivo
Method: Rats infused with ketone bodies were subjected to 60% blood loss for at least 1 hour, followed by return of the shed blood. Endpoint measures of neuroprotection were quantitative analysis of neuronal survival and apoptosis in cortex, hippocampus and cerebellum as well as neurologic function exam scores. The objective was to determine the effectiveness of the D-form of beta-hydroxybutyrate (D-BHB) in conjunction with melatonin in protecting the brain from ischemia and providing protection from reperfusion injury after blood return.
The goal of the following experiments was to maintain 60% blood loss for at least three hours using a minimal amount of fluid in order to maintain viability. Sixty-percent blood loss was calculated by using the equation: Total blood volume=Animal body weight×0.06. A bolus volume of 1 ml ischemia/reperfusion protection composition per kilogram of animal body weight was given to animals after approximately 40% blood loss. Some animals only received a single 1 ml/kg bolus, while other animals received a slow infusion (100 μl/hr) to imitate an intravenous drip of solution after the bolus was given. […]
Once rats were fully anesthesized and stabilized for a 20 min period, blood loss was begun. […] Temperature was monitored with a rectal probe. […] Animal death was recorded when blood pressure, respiration, and precordial movement ceased (see FIG. 9 for a timeline). […]

[2] = test system: hibernating ground squirrels; details: in vivo, ip

| transport into the heart during hibernation [2] | SMILES | survival compared with 4 M NaCl ([1]; 60% blood loss, same osmolarity, ambient temperature drift) | survival compared with NaCl, bolus followed by infusion ([1]; bolus then 100 μl/hr infusion, p-value <0.016) |
| --- | --- | --- | --- |
| – | C[C@@H](O)CC(=O)O [D-BHB, D-beta-hydroxybutyrate] | survived longer | lived significantly longer |
| efficiently transported into the heart | [13CH3][C@@H](O)[13CH2]C(=O)O [^13C-D-BHB, [2,4-^13C]D-beta-hydroxybutyrate] | – | – |
